Assay results published in PMC8301114, “LC-ESI-LTQ-Orbitrap-MS for Profiling the Distribution of Oleacein and Its Metabolites in Rat Tissues” (Antioxidants, 2021).
“And” between values parts separate entries of the source, which are not always exact repeats. Equal values may be shown once. Marks after values point to notes of the source that are not given here.

What was measured:
[1] = set-up: method as in PMID 21411025; details: pH 2.0, after 4 h, partial hydrolysis releasing OH-TY; cited from earlier work
[2] = set-up: method as in PMID 21411025; details: in vivo study with rats; cited from earlier work
[3] = Tissue distribution of OLEA and its metabolites after intragastric administration of ROO containing OLEA (LC-ESI-LTQ-Orbitrap-MS); format: in vivo, male Sprague–Dawley rats; details: for Tissue concentration in heart / Concentration in liver / Concentration in small intestine / Concentration in stomach: mean ± SD; for Detection in heart, spleen, thyroids, lungs, brain, kidney, and skin: 1, 2 and 4.5 h after intragastric OLEA in ROO
Procedure: (§1) In this study, male Sprague–Dawley rats (body weight 227 ± 11 g) were obtained from Envigo RMS Spain SL (Sant Feliu de Codines, Barcelona, Spain). The animals were acclimated for at least 1 week before the initiation of dosing with free access to food and water. They were kept at 22 ± 2 °C in an air-conditioned room on a 12-h light–12-h dark cycle. Before the experiments, the animals were fasted overnight with water available ad libitum. The experiments were performed in compliance with the Animal Experimentation Ethics Committee of the University of Barcelona, Spain and were approved by the Generalitat de Catalunya (trial no. CEEA 124/16 and no. 6435, respectively).
(§2) Before the experiment, the ROO (used as a vehicle to dissolve OLEA for intragastric administration) was analyzed by LC-ESI-LTQ-Orbitrap-MS to make sure it was free of phenolic compounds. The liquid–liquid extraction of phenolic compounds in the ROO was performed following previously described procedures. The chromatographic and mass spectrometer conditions were the same as used for the identification of metabolites (Section 2.6). Once the absence of phenolic compounds was confirmed, the OLEA was added to obtain a final concentration of 0.3 mg/mL. This concentration was chosen based on its concentration in commercial EVOO (around 300 mg/kg), and the daily ingestion recommended by the European Food Safety Authority of at least 5 mg of hydroxytyrosol and its derivatives per 20 g of olive oil.
(§3) The rats were divided into three different groups according to the time of euthanasia: 1 h (n = 4), 2 h (n = 5), and 4.5 h (n = 4). At 0 h, ROO loaded with OLEA standard was supplied to the rats (2.5 mL/300 g body weight) by intragastric administration. Additionally, a control group of rats was maintained under fasting conditions without olive oil ingestion and then similarly euthanized. The gavage volume was established following a good practice guide for substance administration and was lower than the maximum volume of lipid vehicles per kg of rat body weight that prevents elevated plasma corticosterone levels.
(§4) The rats were anesthetized with isoflurane (IsoFlo, veterinaria Esteve, Barcelona, Spain) and euthanized by exsanguinations at the aforementioned time points after the ROO ingestion. Blood samples were collected in EDTA tubes, centrifuged to obtain the plasma (3000× g, 10 min at 4 °C), and stored at −80 °C until analysis. The gastrointestinal tract (including stomach and small intestine), heart, spleen, thyroids, lungs, brain, kidney, and skin were removed from rats at the designated time points. All tissues were washed with saline solution (NaCl 0.9%) and dried with filter paper. In the case of the intestine, the portion removed was 15 cm from 2 cm posterior to the pyloric sphincter, and the intestine was also washed internally by perfusing the isotonic saline solution several times. Rat tissues were accurately weighed and stored at −80 °C until analysis.
(§5) For extraction, all samples were slowly thawed in ice. To avoid compound oxidation, the samples were handled in a room with filtered light and kept on ice throughout. The clean-up of the biological matrix (protein precipitation) was performed using a previously developed method.
A small tissue disruptor (T 10 basic ULTRA-TURRAX®, IKA laboratory technology, Staufen, Germany) was used to homogenize the thawed tissues in a 1:1 ratio (w/v) with water:ACN (1:1 (v/v) with 0.1% ascorbic acid). The samples were then sonicated for 5 min in an ice bath, shaken for 1 min (Vortex-Genie 2) and centrifuged for 10 min (11,000× g, 4 °C). To precipitate the proteins, a volume of 100 µL of the upper layer was blended with cold ACN acidified with formic acid (2%) in a 1:3 (v/v) ratio. After that, the samples were homogenized for 1 min and kept at −20 °C in a freezer for 20 min. Finally, the samples were centrifuged for 10 min (11,000× g, 4 °C) and 100 µL of supernatant was transferred to vials for analysis. […]

[4] = Plasma concentration of OLEA and its metabolites after intragastric administration of ROO containing OLEA (LC-ESI-LTQ-Orbitrap-MS); format: in vivo, male Sprague–Dawley rats
Procedure: as §1, §2, §3, §4, §5
Plasma samples were centrifuged for 10 min (11,000× g, 4 °C). Briefly, 100 µL of each sample was deproteinized with ice-cold ACN acidified with formic acid (2%) in a 1:5 (v/v) ratio. The samples were then homogenized for 1 min and kept at −20 °C in a freezer for 20 min. After that, samples were centrifuged (11,000× g, 4 °C, 10 min) and finally, 100 µL of each organic phase was transferred to vials for analysis.
The metabolic profile was determined by analyzing the samples with LC-ESI-LTQ-Orbitrap-MS. […]

[5] = set-up: method as in doi:10.1016/j.jff.2016.01.030; details: stomach at 1 h, another study; cited from earlier work
[6] = set-up: method as in PMID 30469520, PMID 10745093; details: moderate lipophilicity; cited from earlier work
[7] = 1 h after intragastric OLEA 0.3 mg/mL in ROO
[8] = small intestine, 1 h after intragastric OLEA 0.3 mg/mL in ROO
[9] = small intestine, 2 h after intragastric OLEA 0.3 mg/mL in ROO
[10] = small intestine, 4.5 h after intragastric OLEA 0.3 mg/mL in ROO
[11] = stomach, 1 h after intragastric OLEA 0.3 mg/mL in ROO
[12] = stomach, 2 h after intragastric OLEA 0.3 mg/mL in ROO
[13] = stomach, 4.5 h after intragastric OLEA 0.3 mg/mL in ROO
[14] = 1 h after intragastric OLEA 0.3 mg/mL in ROO, mean ± SD
[15] = 2 h after intragastric OLEA 0.3 mg/mL in ROO, mean ± SD
[16] = 4.5 h after intragastric OLEA 0.3 mg/mL in ROO, mean ± SD
[17] = 2 h after intragastric OLEA 0.3 mg/mL in ROO
[18] = 4.5 h after intragastric OLEA 0.3 mg/mL in ROO

Concentration in plasma [4, 15] | Detection in heart, spleen, thyroids, lungs, brain, kidney, and skin [3] | Molecule | Concentration in liver [3, 7] | Concentration in small intestine [3, 8] | Concentration in small intestine [3, 9] | Concentration in small intestine [3, 10] | Concentration in stomach [3, 11] | Concentration in stomach [3, 12] | Concentration in stomach [3, 13] | Concentration in plasma [4, 14] | Concentration in plasma [4, 16] | Concentration in liver [3, 17] | Concentration in liver [3, 18] | logP [6] | also measured
0.65 ± 0.07 ^b nmol OLEA equivalents/mL |  | CC=C(C=O)C(CC=O)CC(=O)OCCc1ccc(O)c(O)c1 (stereo in doubt) [OLEA, Oleacein] | 0.28 ± 0.02 nmol OLEA equivalents/g tissue | 2.24 ± 0.14 ^a nmol OLEA equivalents/g tissue | 1.69 ± 0.25 ^b nmol OLEA equivalents/g tissue | 0.51 ± 0.10 ^c nmol OLEA equivalents/g tissue | 8.73 ± 0.29 ^a nmol OLEA equivalents/g tissue | 7.39 ± 0.25 ^b nmol OLEA equivalents/g tissue | 5.77 ± 0.54 ^c nmol OLEA equivalents/g tissue | 1.37 ± 0.20 nmol OLEA equivalents/mL and 1.37 ± 0.20 ^a nmol OLEA equivalents/mL | 0.67 ± 0.10 nmol OLEA equivalents/mL and 0.67 ± 0.10 ^b nmol OLEA equivalents/mL |  |  |  | OLEA remaining after incubation at pH 2.0 [1]: about 67%; Degradation in the gastric region [2]: complete degradation; Tissue concentration in heart ([3]; heart, 1 h after acute intake of OLEA (0.3 mg/mL) in ROO): 0.44 ± 0.07 nmol OLEA equivalents/g tissue and 0.44 ± 0.07 ^a nmol OLEA equivalents/g tissue; Tissue concentration in heart ([3]; heart, 2 h after acute intake of OLEA (0.3 mg/mL) in ROO): 0.45 ± 0.04 nmol OLEA equivalents/g tissue and 0.45 ± 0.04 ^a nmol OLEA equivalents/g tissue; Tissue concentration in heart ([3]; heart, 4.5 h after acute intake of OLEA (0.3 mg/mL) in ROO): 0.44 ± 0.06 nmol OLEA equivalents/g tissue and 0.44 ± 0.06 ^a nmol OLEA equivalents/g tissue; Concentrations detected in the heart ([3]; heart, all time points): ≤ 0.5 nmol OLEA equivalents/g tissue; Decrease of concentration in the small intestine relative to Cmax at 1 h ([3]; small intestine, at 2 h): 25%; Decrease of concentration in the small intestine relative to Cmax at 1 h ([3]; small intestine, at 4.5 h): 77%; Time of Cmax in small intestine ([3]; small intestine, sampling at 1, 2, 4.5 h): 1 h; Decrease of concentration in the stomach relative to Cmax at 1 h ([3]; stomach, at 2 h): 16%; Decrease of concentration in the stomach relative to Cmax at 1 h ([3]; stomach, at 4.5 h): 34%; Time of Cmax in stomach ([3]; stomach, sampling at 1, 2, 4.5 h): 1 h; Time of Cmax in plasma ([4]; sampling at 1, 2, 4.5 h): 1 h
 | not detected | OCCc1ccc(O)c(O)c1 [OH-TY, hydroxytyrosol] | 3.34 ± 0.08 ^b nmol OLEA equivalents/g tissue | 4.71 ± 0.32 ^a nmol OLEA equivalents/g tissue | 3.79 ± 0.29 ^b nmol OLEA equivalents/g tissue | 2.70 ± 0.21 ^c nmol OLEA equivalents/g tissue | 13.37 ± 1.27 ^a nmol OLEA equivalents/g tissue | 7.81 ± 0.69 ^b nmol OLEA equivalents/g tissue | 5.23 ± 0.37 ^c nmol OLEA equivalents/g tissue |  |  | 3.83 ± 0.21 ^a nmol OLEA equivalents/g tissue | 2.51 ± 0.07 ^c nmol OLEA equivalents/g tissue | ~ 0.9 | OH-TY concentration in stomach [5]: 8.75 ± 1.95 nmols/g digesta; Share of the total metabolites identified in plasma ([4]; 1 h): 20%; Share of the total metabolites identified in plasma ([4]; 2 h): 22%; Share of the total metabolites identified in plasma ([4]; 4.5 h): 17%; concentration at 1 h ([4]; male, Sprague-Dawley, rat, oral, 2.5 mg/kg, 1 h after intragastric OLEA 0.3 mg/mL in ROO, mean ± SD): 2110 ± 100 nM; concentration at 2 h ([4]; male, Sprague-Dawley, rat, oral, 2.5 mg/kg, 2 h after intragastric OLEA 0.3 mg/mL in ROO, mean ± SD): 3020 ± 160 nM; concentration at 4.5 h ([4]; male, Sprague-Dawley, rat, oral, 2.5 mg/kg, 4.5 h after intragastric OLEA 0.3 mg/mL in ROO, mean ± SD): 1620 ± 140 nM
0.76 ± 0.04 ^a nmol OLEA equivalents/mL | not detected | elenolic acid [EA] | 1.07 ± 0.06 ^b nmol OLEA equivalents/g tissue | 1.81 ± 0.05 ^a nmol OLEA equivalents/g tissue | 0.67 ± 0.08 ^b nmol OLEA equivalents/g tissue | 0.16 ± 0.02 ^c nmol OLEA equivalents/g tissue | 7.53 ± 0.56 ^a nmol OLEA equivalents/g tissue | 4.07 ± 0.36 ^b nmol OLEA equivalents/g tissue | 1.81 ± 0.13 ^c nmol OLEA equivalents/g tissue | 0.43 ± 0.03 ^b nmol OLEA equivalents/mL | 0.16 ± 0.02 ^c nmol OLEA equivalents/mL | 1.34 ± 0.08 ^a nmol OLEA equivalents/g tissue | 0.76 ± 0.02 ^c nmol OLEA equivalents/g tissue | ~ 0.9 | 
